# Patent US20130165464A1, “HETEROARYLS AND USES THEREOF” (MILLENNIUM PHARMACEUTICALS, INC., priority 2011, published 2013)
# Target: T1, VPS34 (Homo sapiens, UniProt Q8NEB9)
# T1 construct: GST (N); host or cells: SF9 insect cells (baculovirus)
# Test: Human VPS34 enzyme assay (Adapta TR-FRET)
# Format: biochemical
# Details: for inhibition at 1.11 µM: 1 h, at a 1.11 μM concentration, read-out: VPS34 Percent Inhibition
# Protocol: VPS34 (accession number GB:BCO33004) was cloned into pDEST20-Thombin as N-terminal GST tagged fusion proteins using the Gateway system (Invitrogen, catalog#11804-013). The sequences were verified before recombinant protein expression using the Baculovirus Expression System with Gateway® Technology.
# For expression VPS34 was infected at 1MOI in SF9 cells and harvested 72 hours post infection.
# For purification, VPS34 is purified by Glutathione Sepharose 4 Fast Flow (GE Healthcare #17-5132-03) followed by HiTrap Q (GE Healthcare #17-1153-01).
# Human VPS34 Enzyme Assay Method
# 100 nL compounds in DMSO are added to wells of a 384 well microtitre plate (Greiner 780076). At room temperature: 5 ul VPS34 reaction buffer (Invitrogen Assay Buffer Q (diluted 1 in 5 with nanopure water) plus 2 mM DTT and 2 mM MnCl2) containing ATP (20 uM, Promega) and 200 uM PI-PS substrate (Invitrogen PV5122) is added followed immediately by 5 ul VPS34 reaction buffer (as above) containing VPS34 (5 nM, Millennium Protein Sciences Group) and the mixture is incubated with shaking at room temperature for 1 hour. Then 5 ul VPS34 stop-detect mix (as per Invitrogen Adapta Assay kit (PV5009) instructions (contains kinase quench buffer, TR-FRET buffer, Adapta Eu anti-ADP antibody and Alexa Fluor 647 ADP tracer)) is added to quench the reaction. The plates are then incubated for 30 minutes at room temperature with shaking and then read on a BMG PheraStar Plus reader.
# For the assay methods described above, test compound percent inhibition, at various concentrations, is calculated relative to control (DMSO and EDTA) treated samples. Compound concentration versus percent inhibition curves are fitted to generate IC50 values. One skilled in the art will appreciate that the values generated either as percentage inhibition at a single concentration or IC50 values are subject to experimental variation.
# T1 sequence (Q8NEB9 whole entry): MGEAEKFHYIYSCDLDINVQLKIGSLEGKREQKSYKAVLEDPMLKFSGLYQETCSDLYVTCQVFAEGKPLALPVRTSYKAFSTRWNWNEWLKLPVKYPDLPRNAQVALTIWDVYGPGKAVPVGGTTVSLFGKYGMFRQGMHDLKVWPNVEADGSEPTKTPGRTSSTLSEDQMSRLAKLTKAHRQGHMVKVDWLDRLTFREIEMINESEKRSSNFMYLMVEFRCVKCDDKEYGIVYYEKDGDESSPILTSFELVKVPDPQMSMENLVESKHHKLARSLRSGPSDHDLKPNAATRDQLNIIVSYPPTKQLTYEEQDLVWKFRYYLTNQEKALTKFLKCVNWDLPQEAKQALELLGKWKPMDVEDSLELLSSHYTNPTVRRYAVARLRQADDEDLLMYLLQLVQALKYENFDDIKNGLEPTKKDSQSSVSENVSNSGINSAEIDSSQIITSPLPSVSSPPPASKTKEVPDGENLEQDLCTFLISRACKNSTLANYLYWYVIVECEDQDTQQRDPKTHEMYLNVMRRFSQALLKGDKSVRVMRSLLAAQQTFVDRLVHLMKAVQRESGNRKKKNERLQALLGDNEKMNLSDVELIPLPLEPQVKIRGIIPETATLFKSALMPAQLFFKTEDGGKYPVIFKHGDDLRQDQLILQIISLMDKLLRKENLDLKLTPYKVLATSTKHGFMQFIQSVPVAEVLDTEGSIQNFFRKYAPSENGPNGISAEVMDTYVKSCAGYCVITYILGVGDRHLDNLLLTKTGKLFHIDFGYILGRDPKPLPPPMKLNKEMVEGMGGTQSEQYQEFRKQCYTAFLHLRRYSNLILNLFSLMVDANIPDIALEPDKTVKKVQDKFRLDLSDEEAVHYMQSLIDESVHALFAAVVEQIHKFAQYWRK
Compound,inhibition at 1.11 µM,IC50
"CC(=O)Nc1cc(-n2cc(-c3nc[nH]n3)c(-c3ccc(F)cc3Cl)n2)c(C)cn1 [I-65, N-{4-[3-(2-chloro-4-fluorophenyl)-4-(1H-1,2,4-triazol-3-yl)-1H-pyrazol-1-yl]-5-methylpyridin-2-yl}acetamide]",> 99%,
"CC(=O)Nc1cc(-n2cc(CO)c(-c3ccccc3Cl)c2)c(C)cn1 [I-85, N-{4-[3-(2-chlorophenyl)-4-(hydroxymethyl)-1H-pyrrol-1-yl]-5-methylpyridin-2-yl}acetamide]",93%,150 to 1000 nM
"Cc1cnc(NC(=O)C2CC2)cc1-n1cc(CO)c(-c2ccccc2Cl)n1 [I-63, N-{4-[3-(2-chlorophenyl)-4-(hydroxymethyl)-1H-pyrazol-1-yl]-5-methylpyridin-2-yl}cyclopropanecarboxamide]",62%,150 to 1000 nM
"CCC(=O)Nc1cc(-n2cc(-c3nc[nH]n3)c(-c3ccccc3Cl)c2)c(C)cn1 [I-50, N-{4-[3-(2-chlorophenyl)-4-(1H-1,2,4-triazol-3-yl)-1H-pyrrol-1-yl]-5-methylpyridin-2-yl}propanamide]",> 99%,< 50 nM
"COC(=O)Nc1cc(-n2cc(-c3nc[nH]n3)c(-c3ccccc3Cl)n2)c(C)cn1 [I-45, methyl {4-[3-(2-chlorophenyl)-4-(4H-1,2,4-triazol-3-yl)-1H-pyrazol-1-yl]-5-methylpyridin-2-yl}carbamate]",> 99%,
"Cc1cnc(NC(=O)C2CC2)cc1-n1cc(C(N)=O)c(-c2ccccc2Cl)c1 [I-40, 4-(2-chlorophenyl)-1-{2-[(cyclopropylcarbonyl)amino]-5-methylpyridin-4-yl}-1H-pyrrole-3-carboxamide]",> 99%,< 50 nM
"CC(=O)Nc1cc(-n2cc(-c3ncc[nH]3)c(-c3ccccc3Cl)n2)c(C)cn1 [I-27, N-{4-[3-(2-chlorophenyl)-4-(1H-imidazol-2-yl)-1H-pyrazol-1-yl]-5-methylpyridin-2-yl}acetamide]",> 99%,< 50 nM
"Cc1cnc(NC(=O)C2CC2)cc1-n1cc(C(N)=O)c(-c2cc(CN3CCCC3)ccc2Cl)c1 [I-71, 4-[2-chloro-5-(pyrrolidin-1-ylmethyl)phenyl]-1-{2-[(cyclopropylcarbonyl)amino]-5-methylpyridin-4-yl}-1H-pyrrole-3-carboxamide]",> 99%,150 to 1000 nM
"NC(=O)c1cn(-c2ccnc(NCCc3ccc(O)cc3)n2)nc1-c1ccccc1Cl [I-43, 3-(2-chlorophenyl)-1-(2-{[2-(4-hydroxyphenyl)ethyl]amino}pyrimidin-4-yl)-1H-pyrazole-4-carboxamide]",27%,1000 to 5000 nM
"CC(=O)Nc1cc(-n2cc(-c3nc[nH]n3)c(-c3ccccc3Cl)c2)c(C)cn1 [I-31, N-{4-[3-(2-chlorophenyl)-4-(1H-1,2,4-triazol-3-yl)-1H-pyrrol-1-yl]-5-methylpyridin-2-yl}acetamide]",> 99%,< 50 nM
"CC(=O)Nc1cc(-n2cc(C(N)=O)c(-c3cc(CN(C)C)ccc3Cl)c2)c(C)cn1 [I-70, 1-(2-acetamido-5-methylpyridin-4-yl)-4-{2-chloro-5-[(dimethylamino)methyl]phenyl}-1H-pyrrole-3-carboxamide]",20%,1000 to 5000 nM
"CC(=O)Nc1cc(-n2nc(-c3ccccc3Cl)c(-c3nc[nH]n3)c2Br)c(Br)cn1 [I-4, N-{5-bromo-4-[5-bromo-3-(2-chlorophenyl)-4-(1H-1,2,4-triazol-3-yl)-1H-pyrazol-1-yl]pyridin-2-yl}acetamide]",18%,1000 to 5000 nM
"CC(=O)Nc1cc(-n2cc(-c3nnc[nH]3)c(I)n2)c(C)cn1 [I-62, N-{4-[3-iodo-4-(1H-1,2,4-triazol-3-yl)-1H-pyrazol-1-yl]-5-methylpyridin-2-yl}acetamide]",59%,150 to 1000 nM
"CC(=O)Nc1cc(-n2cc(-c3cccc(N)n3)c(-c3ccccc3Cl)n2)c(C)cn1 [I-107, N-{4-[4-(6-aminopyridin-2-yl)-3-(2-chlorophenyl)-1H-pyrazol-1-yl]-5-methylpyridin-2-yl}acetamide]",54%,150 to 1000 nM
"CC(=O)Nc1cc(-n2cc(C(N)=O)c(-c3ccccc3Cl)c2)c(C)cn1 [I-41, 1-(2-acetamido-5-methylpyridin-4-yl)-4-(2-chlorophenyl)-1H-pyrrole-3-carboxamide]",78%,
"NC(=O)c1cn(-c2ccnc3[nH]ccc23)nc1-c1ccccc1Cl [I-7, 3-(2-chlorophenyl)-1-(1H-pyrrolo[2,3-b]pyridin-4-yl)-1H-pyrazole-4-carboxamide]",88%,150 to 1000 nM
"CCc1ccccc1-c1nn(-c2cc(NC(C)=O)ncc2C)cc1-c1nc[nH]n1 [I-57, N-{4-[3-(2-ethylphenyl)-4-(1H-1,2,4-triazol-3-yl)-1H-pyrazol-1-yl]-5-methylpyridin-2-yl}acetamide]",94%,150 to 1000 nM
"Cc1cnc(NC(=O)C2CC2)cc1-n1cc(-c2nc[nH]n2)c(-c2ccccc2Cl)n1 [I-46, N-{4-[3-(2-chlorophenyl)-4-(1H-1,2,4-triazol-3-yl)-1H-pyrazol-1-yl]-5-methylpyridin-2-yl}cyclopropanecarboxamide]",> 99%,< 50 nM
"Cc1cnc(NC(=O)C2CC2)cc1-n1cc(-c2ncc[nH]2)c(-c2ccccc2Cl)c1 [I-82, N-{4-[3-(2-chlorophenyl)-4-(1H-imidazol-2-yl)-1H-pyrrol-1-yl]-5-methylpyridin-2-yl}cyclopropanecarboxamide]",> 99%,
"COCCOC(=O)Nc1cc(-n2cc(-c3nc[nH]n3)c(-c3ccccc3Cl)c2)c(C)cn1 [I-78, 2-methoxyethyl {4-[3-(2-chlorophenyl)-4-(1H-1,2,4-triazol-3-yl)-1H-pyrrol-1-yl]-5-methylpyridin-2-yl}carbamate]",> 99%,< 50 nM
"COC(=O)Nc1cc(-n2cc(-c3nc[nH]n3)c(-c3ccccc3Cl)n2)ccn1 [I-17, methyl {4-[3-(2-chlorophenyl)-4-(1H-1,2,4-triazol-3-yl)-1H-pyrazol-1-yl]pyridin-2-yl}carbamate]",> 99%,< 50 nM
"CC(=O)Nc1cc(-n2cc(-c3ncc[nH]3)c(-c3ccccc3Cl)n2)ccn1 [I-32, N-{4-[3-(2-chlorophenyl)-4-(1H-imidazol-2-yl)-1H-pyrazol-1-yl]pyridin-2-yl}acetamide]",> 99%,< 50 nM
"CC(=O)Nc1cc(-n2cc(-c3ccccc3Cl)c(-c3nnc[nH]3)n2)ccn1 [I-1, N-{4-[4-(2-chlorophenyl)-3-(1H-1,2,4-triazol-3-yl)-1H-pyrazol-1-yl]pyridin-2-yl}acetamide]",98%,150 to 1000 nM
"Cc1cnc(N)cc1-n1cc(-c2nnc[nH]2)c(-c2ccccc2Cl)n1 [I-108, 4-[3-(2-chlorophenyl)-4-(4H-1,2,4-triazol-3-yl)-1H-pyrazol-1-yl]-5-methylpyridin-2-amine]",10%,1000 to 5000 nM
"CC(=O)Nc1cc(-n2cc(-c3nc[nH]n3)c(-c3ccc(C(F)(F)F)cc3Cl)n2)c(C)cn1 [I-66, N-(4-{3-[2-chloro-4-(trifluoromethyl)phenyl]-4-(1H-1,2,4-triazol-3-yl)-1H-pyrazol-1-yl}-5-methylpyridin-2-yl)acetamide]",89%,150 to 1000 nM
"CC(=O)Nc1cc(-n2cc(C(=O)O)c(-c3ccccc3Cl)n2)c(C)cn1 [I-6, 1-(2-acetamido-5-methylpyridin-4-yl)-3-(2-chlorophenyl)-1H-pyrazole-4-carboxylic acid]",97%,150 to 1000 nM
"CC(=O)Nc1cc(-n2cc(C(N)=O)c(-c3ccccc3Cl)c2)c(Cl)cn1 [I-37, 1-(2-acetamido-5-chloropyridin-4-yl)-4-(2-chlorophenyl)-1H-pyrrole-3-carboxamide]",88%,150 to 1000 nM
"COCCOC(=O)Nc1cc(-n2cc(C(N)=O)c(-c3ccccc3Cl)c2)c(C)cn1 [I-54, 2-methoxyethyl {4-[3-carbamoyl-4-(2-chlorophenyl)-1H-pyrrol-1-yl]-5-methylpyridin-2-yl}carbamate]",> 99%,
"CC(=O)Nc1cc(-n2cc(-c3nc[nH]n3)c(-c3ccccc3SC(F)(F)F)n2)c(C)cn1 [I-59, N-{5-methyl-4-[4-(1H-1,2,4-triazol-3-yl)-3-{2-[(trifluoromethyl)sulfanyl]phenyl}-1H-pyrazol-1-yl]pyridin-2-yl}acetamide]",75%,150 to 1000 nM
"Cc1cnc(NC(=O)OC2CCCCC2)cc1-n1cc(C(N)=O)c(-c2ccccc2Cl)c1 [I-72, cyclohexyl {4-[3-carbamoyl-4-(2-chlorophenyl)-1H-pyrrol-1-yl]-5-methylpyridin-2-yl}carbamate]",71%,150 to 1000 nM
